Data from patent US20190202885A1, “TauT (taurine transporter) peptide cancer vaccine” (priority 2017, published 2019).
Where no end group is shown, it is not given here.

Experiments:
p53^−/− mice = assay: TauT-peptide vaccination of p53−/− mice: tumor development and lifespan; assay type: in vivo
Description: To evaluate the efficacy of TauT-peptide as a cancer vaccine, p53^−/− (C57BL/6J background) were injected with either TauT-peptide (100 μg/kg) or vehicle only at the age of 4 weeks and boosted 2 weeks later (n=12 for each group). All mice were observed daily for signs of morbidity and the development of tumors.
To test TauT-peptide vaccine, p53 knockout (KO) mice were immunized with 100 μg/kg and boosted with an equal amount of antigen 2 weeks late. […] Mice were bled on Days 21 and 36 to measure the antibody response.
To evaluate the efficacy of TauT-peptide as a cancer vaccine, p53 null (C57BL/6J background) were injected with either TauT-peptide (100 μg/kg) or vehicle only at the age of 4 weeks and boosted 2 weeks later (n=12 for each group). All mice were observed daily for signs of morbidity and the development of tumors.

p53^+/− mice = assay: TauT-peptide vaccination of p53+/− mice: tumor development and lifespan; assay type: in vivo
Description: FIG. 2A and FIG. 2B. TauT-peptide vaccination prolongs p53^+/− mice lifespan. To evaluate the efficacy of TauT-peptide as a cancer vaccine, p53^+/− (C57BL/6J background) were injected with either TauT-peptide (100 μg/kg) or vehicle only at the age of 4 weeks and boosted 2 weeks later (n=15 for each group). All mice were observed daily for signs of morbidity and the development of tumors. The p53^+/− control mice started to develop tumor (mainly osteosarcoma) at the age of 186 day (FIG. 2A). The median lifespan for p53^+/− control mice was 315 days (FIG. 2B), which consistent with other studies. […] TauT-peptide vaccination delayed tumor develops in all vaccinated p53^+/− mice, which started to develop tumor (mainly osteosarcoma) and died at the age of 526 days (FIG. 2A).
TauT-peptide (SEQ ID NO 3) was coupled to KLH with a kit (Imject SuperCarrier EDC system for Peptides; Pierce). To test TauT-peptide vaccine, p53 knockout (KO) mice were immunized with 100 μg/kg and boosted with an equal amount of antigen 2 weeks late. To develop and test TauT-Ab, wild type control mice were immunized with 100 μg/kg TauT-peptide and boosted with an equal amount of antigen 2 weeks late. Mice were bled on Days 21 and 36 to measure the antibody response. Antisera were collected on Day 49 and purified by affinity column chromatography (Pierce). Antisera were stored at −80° C. Specificity of the antibody was determined by Western blot analysis (10).

[1] = p53−/− mice, 100 μg/kg at 4 weeks of age, boosted 2 weeks later
[2] = p53−/− mice, 100 μg/kg at 4 weeks of age, boosted 2 weeks later, n=12
[3] = p53+/− mice, 100 μg/kg at 4 weeks of age, boosted 2 weeks later, n=15

TauT-peptide vaccine: TauT-peptide (SEQ ID NO 3) comprising amino acid residues 313-326 of TauT (SLC6A6), coupled to KLH, used as peptide vaccine (GSYNKYKYNSYRDC; also: coupled to KLH carrier, site not given here)
response to the vaccine (p53^−/− mice; p53−/− mice vaccinated): 100% | age at which mice started to develop tumor (mainly lymphoma) and died (p53^−/− mice; [1]): 6.3 months | lifespan (p53^−/− mice; [1]): 6.9 months | age at which mice started to develop tumor (mainly lymphoma) (p53^−/− mice; [2]): 189 days | median lifespan (p53^−/− mice; [2]): 207 days | increase of (median) lifespan versus control (p53^−/− mice; p53−/− mice, vaccinated vs vehicle control): 1.5 fold | response to the vaccine (p53^+/− mice; p53+/− mice vaccinated): 100% | age at which mice started to develop tumor (mainly osteosarcoma) and died (p53^+/− mice; [3]): 526 days | median lifespan (p53^+/− mice; [3]): 621 days
